Results on 16 compounds are retold here after PubChem BioAssay (NCI).

Some test systems named below: A498 renal; NCI-H460 lung; MDA-N; SR leukemia; RPMI-8226 leukemia; OVCAR-4 ovarian; ACHN renal; SF-295 CNS; HCT-15 colon; OVCAR-5 ovarian; MDA-MB-231 breast; CCRF-CEM leukemia; PC-3 prostate; HCT-116 colon; NCI-H226 lung; HCC-2998 colon; SNB-75 CNS; UACC-62 melanoma; EKVX NSCLC; T-47D breast.
What all share (experiment): NCI tumour cell line growth inhibition, 48 h

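Grown in 96-well plates, cells were treated for 48 hours with each compound at five concentrations. Insufficient inhibition: endpoint recorded as highest concentration tested. TGI: total growth inhibition.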 A value given as a limit tells only on which side of the number the result lay.

On to `COc1ccccc1C(C1=C(O)COC1=O)c1cc2c(cc1OC(C)=O)OCO2` (configuration not stated), for which the TGI in the test with A498 renal, with NCI-H460 lung, in the test with MDA-N, in the test on SR leukemia, in the test on RPMI-8226 leukemia and in the test with OVCAR-4 ovarian was > 100 µM each time. Further, the TGI with ACHN renal, in the test with SF-295 CNS, in the test with HCT-15 colon, in the test with OVCAR-5 ovarian, in the test with MDA-MB-231 breast and in the test on CCRF-CEM leukemia was > 100 µM throughout. Also, the TGI with PC-3 prostate, in the test with HCT-116 colon, in the test with NCI-H226 lung, with HCC-2998 colon, with SNB-75 CNS and with UACC-62 melanoma was > 100 µM throughout. The TGI with EKVX NSCLC is > 100 µM.
As to `O=C(O)C1(C(=O)O)CC1(C(=O)O)C(=O)O`, the TGI in the test with NCI-H460 lung, in the test with SR leukemia, with OVCAR-4 ovarian, with ACHN renal, in the test on SF-295 CNS and with HCT-15 colon was > 100 µM each time. Also, the TGI in the test on OVCAR-5 ovarian, in the test with MDA-MB-231 breast, in the test on CCRF-CEM leukemia, in the test with PC-3 prostate, with HCT-116 colon and in the test on NCI-H226 lung was > 100 µM each time. The TGI in the test with T-47D breast, in the test with HCC-2998 colon, in the test on SNB-75 CNS, with UACC-62 melanoma and in the test with EKVX NSCLC was > 100 µM throughout.
For the compound `OCC1NCC(O)C(O)C1O` (configuration not stated), the TGI with A498 renal, in the test with NCI-H460 lung, in the test on MDA-N, in the test with SR leukemia, with RPMI-8226 leukemia and in the test on OVCAR-4 ovarian was > 100 µM each time. The TGI in the test on ACHN renal, in the test with HCT-15 colon, in the test on OVCAR-5 ovarian, in the test with CCRF-CEM leukemia, in the test with PC-3 prostate and in the test with HCT-116 colon was > 100 µM each time. In addition, the TGI in the test with HCC-2998 colon, in the test with SNB-75 CNS, in the test on UACC-62 melanoma and in the test on EKVX NSCLC was > 100 µM each time.
As to `CCOP(=O)(OCC)C1CC(O)CN1OC(=O)C(C)(C)C` (configuration not stated), the TGI in the test with A498 renal, with MDA-N, in the test on SR leukemia, in the test with RPMI-8226 leukemia, in the test on OVCAR-4 ovarian and in the test with ACHN renal was > 100 µM throughout. The TGI in the test with SF-295 CNS, in the test with HCT-15 colon, in the test on OVCAR-5 ovarian, in the test on MDA-MB-231 breast, in the test with CCRF-CEM leukemia and in the test on PC-3 prostate was > 100 µM each time. In addition, the TGI in the test with HCT-116 colon, in the test with NCI-H226 lung, with SNB-75 CNS, in the test with UACC-62 melanoma and with EKVX NSCLC was > 100 µM each time.
Consider `O=C(NC1CCC(=O)N1C(=O)OCc1ccccc1)OCc1ccccc1` (configuration not stated), for which the TGI in the test on NCI-H460 lung, in the test on MDA-N, in the test with SR leukemia, in the test with RPMI-8226 leukemia, in the test with ACHN renal and in the test with SF-295 CNS was > 100 µM throughout. Moreover, the TGI with HCT-15 colon, in the test on OVCAR-5 ovarian, in the test on MDA-MB-231 breast, in the test with PC-3 prostate, in the test with NCI-H226 lung and with HCC-2998 colon was > 100 µM throughout. For the same compound, the TGI in the test with SNB-75 CNS and in the test with UACC-62 melanoma was > 100 µM each time.
`OC(c1cccnc1)C(F)(F)c1nc2ccccc2o1` (configuration not stated): the TGI in the test on A498 renal, in the test with NCI-H460 lung, in the test on SR leukemia, with RPMI-8226 leukemia, in the test on OVCAR-4 ovarian and in the test on ACHN renal was > 100 µM each time. In addition, the TGI with HCT-15 colon, with MDA-MB-231 breast, in the test on CCRF-CEM leukemia, with PC-3 prostate, with HCT-116 colon and with NCI-H226 lung was > 100 µM each time. For the same compound, the TGI with T-47D breast, in the test with HCC-2998 colon, in the test on SNB-75 CNS, with UACC-62 melanoma and in the test on EKVX NSCLC was > 100 µM in each case.
In the case of `Cc1ccc(OCC2OC(C#N)C(Oc3ccc(C)cc3)C2Oc2ccc(C)cc2)cc1` (configuration not stated), the TGI with A498 renal, in the test with NCI-H460 lung, in the test with SR leukemia, with RPMI-8226 leukemia, with OVCAR-4 ovarian and with SF-295 CNS was > 100 µM in each case. Also, the TGI in the test on HCT-15 colon, in the test with OVCAR-5 ovarian, with MDA-MB-231 breast, in the test with CCRF-CEM leukemia, in the test with PC-3 prostate and in the test on HCT-116 colon was > 100 µM each time. In addition, the TGI in the test on NCI-H226 lung, in the test on T-47D breast, in the test with HCC-2998 colon, in the test on SNB-75 CNS, in the test on UACC-62 melanoma and in the test on EKVX NSCLC was > 100 µM throughout.
For the compound `NCC#CCNCCCN1CC1`, the TGI in the test on A498 renal, with NCI-H460 lung, in the test on MDA-N, with SR leukemia, with RPMI-8226 leukemia and in the test on OVCAR-4 ovarian was > 100 µM in each case. Further, the TGI in the test with ACHN renal, with SF-295 CNS, with HCT-15 colon, in the test with OVCAR-5 ovarian, with PC-3 prostate and in the test with HCT-116 colon was > 100 µM each time. Further, the TGI in the test with NCI-H226 lung, in the test on T-47D breast, in the test on HCC-2998 colon, with UACC-62 melanoma and in the test with EKVX NSCLC was > 100 µM throughout.
For the compound `CC(C)(C)[Si](C)(C)OCCCCC1CC2(S(=O)(=O)C3=CC=C=C=C3)ON1CC2S(=O)(=O)c1ccccc1` (configuration not stated), the TGI in the test on A498 renal, in the test with NCI-H460 lung, in the test with MDA-N, with RPMI-8226 leukemia, in the test on OVCAR-4 ovarian and with ACHN renal was > 100 µM each time. Also, the TGI with HCT-15 colon, with OVCAR-5 ovarian, in the test with MDA-MB-231 breast, in the test on HCT-116 colon, in the test with NCI-H226 lung and in the test on T-47D breast was > 100 µM in each case. The TGI with HCC-2998 colon, in the test with SNB-75 CNS, with UACC-62 melanoma and with EKVX NSCLC was > 100 µM each time.
Consider `CC(NC(=O)C(N)Cc1ccc(O)cn1)C(=O)O` (configuration not stated), for which the TGI in the test with A498 renal, in the test on NCI-H460 lung, in the test on MDA-N, in the test on SR leukemia, in the test with RPMI-8226 leukemia and in the test with OVCAR-4 ovarian was > 100 µM in each case. Besides, the TGI in the test on ACHN renal, in the test on SF-295 CNS, in the test with HCT-15 colon, in the test on OVCAR-5 ovarian, in the test on MDA-MB-231 breast and in the test with CCRF-CEM leukemia was > 100 µM each time. The TGI with PC-3 prostate, in the test with HCT-116 colon, in the test with NCI-H226 lung, with HCC-2998 colon and with EKVX NSCLC was > 100 µM throughout.
As for `OCC1OC(Oc2cc(O)cc(/C=C\c3ccc(O)cc3)c2)C(O)C(O)C1O` (configuration not stated), the TGI with A498 renal, with NCI-H460 lung, in the test with MDA-N, with SR leukemia, with RPMI-8226 leukemia and with OVCAR-4 ovarian was > 100 µM in each case. Further, the TGI with ACHN renal, with SF-295 CNS, in the test on HCT-15 colon, in the test with OVCAR-5 ovarian, with MDA-MB-231 breast and with CCRF-CEM leukemia was > 100 µM each time. Further, the TGI with PC-3 prostate, in the test on HCT-116 colon, in the test with NCI-H226 lung, in the test with SNB-75 CNS, in the test with UACC-62 melanoma and with EKVX NSCLC was > 100 µM in each case.
For the compound `C[C@]12CCC(=O)C=C1CC[C@@H]1[C@@H]2CC[C@]2(C)C(=O)[C@H](n3ccnc3)C[C@@H]12`, the TGI in the test with A498 renal, in the test on NCI-H460 lung, in the test with MDA-N, in the test with SR leukemia, in the test on RPMI-8226 leukemia and in the test with OVCAR-4 ovarian was > 100 µM each time. The TGI with ACHN renal, with SF-295 CNS, with HCT-15 colon, in the test on OVCAR-5 ovarian, in the test with MDA-MB-231 breast and with CCRF-CEM leukemia was > 100 µM each time. Also, the TGI in the test on PC-3 prostate, with HCT-116 colon, in the test with NCI-H226 lung, with SNB-75 CNS, in the test on UACC-62 melanoma and in the test on EKVX NSCLC was > 100 µM each time.
As for `Cc1ccc2c(=O)cc(-c3cccc4ccccc34)[nH]c2n1`, the TGI in the test on A498 renal was 0.0568 µM; in the test on NCI-H460 lung it was > 100 µM; in the test with SR leukemia, > 100 µM; in the test with OVCAR-4 ovarian it was > 85.1 µM; in the test on ACHN renal it was > 100 µM; with SF-295 CNS, > 100 µM. For the same compound, the TGI with HCT-15 colon was 1.73 µM; in the test with OVCAR-5 ovarian, > 47.1 µM; with MDA-MB-231 breast, > 100 µM; with CCRF-CEM leukemia, > 100 µM; in the test on PC-3 prostate, > 43 µM; with HCT-116 colon it was > 34.8 µM. Besides, the TGI in the test on NCI-H226 lung is 35.2 µM; in the test on T-47D breast it was > 100 µM; in the test on HCC-2998 colon, 0.177 µM; with UACC-62 melanoma, > 100 µM; with EKVX NSCLC, > 100 µM.
As to `COc1ccc(-c2c(C#N)c(-c3ccc(C)cc3)n(NS(=O)(=O)c3ccccc3)c(=O)c2C#N)cc1`, the TGI in the test on A498 renal was > 100 µM; in the test with NCI-H460 lung, > 100 µM; with MDA-N, > 100 µM; in the test with RPMI-8226 leukemia, 39.4 µM; in the test on OVCAR-4 ovarian it was > 100 µM; with ACHN renal, > 100 µM. The TGI in the test with SF-295 CNS, with HCT-15 colon, in the test on OVCAR-5 ovarian, with MDA-MB-231 breast, in the test on CCRF-CEM leukemia and in the test on PC-3 prostate was > 100 µM in each case. Moreover, the TGI with HCT-116 colon, with NCI-H226 lung, in the test with HCC-2998 colon, with SNB-75 CNS, with UACC-62 melanoma and in the test with EKVX NSCLC was > 100 µM throughout.
Regarding `O=C1c2ccccc2-c2nc3ccc(O)cc3n21`, the TGI with NCI-H460 lung, in the test on MDA-N, with SR leukemia, in the test with RPMI-8226 leukemia, in the test with OVCAR-4 ovarian and in the test with ACHN renal was > 100 µM throughout. Further, the TGI in the test with SF-295 CNS, with HCT-15 colon, with OVCAR-5 ovarian, in the test with CCRF-CEM leukemia, in the test with PC-3 prostate and in the test on HCT-116 colon was > 100 µM throughout. Besides, the TGI in the test on NCI-H226 lung, with HCC-2998 colon, with SNB-75 CNS, in the test with UACC-62 melanoma and in the test on EKVX NSCLC was > 100 µM in each case.
In the case of `O=C(C#CP(=O)(O)c1ccccc1)c1ccccc1`, the TGI in the test on A498 renal, in the test on NCI-H460 lung, with MDA-N, in the test with SR leukemia, in the test with OVCAR-4 ovarian and in the test on ACHN renal was > 100 µM in each case. In addition, the TGI in the test on SF-295 CNS, in the test with HCT-15 colon, in the test with OVCAR-5 ovarian, with PC-3 prostate, in the test on HCT-116 colon and in the test with T-47D breast was > 100 µM in each case. The TGI in the test on HCC-2998 colon, in the test on SNB-75 CNS, with UACC-62 melanoma and with EKVX NSCLC was > 100 µM each time.
